Laboratory results as given in US20150147385A1, “INTRAVENOUS SYNTHETIC CURCUMIN (S-CURCUMIN) FOR THE TREATMENT OF PROLIFERATIVE DISORDERS” (SignPath Pharma, Inc., priority 2013, published 2015).
Converted amounts (≈) assume the structure as drawn. Like-named read-outs stand apart in the source and are kept apart here.

Assays:
[1] = Solubilities of S-curcumin and C3-complex curcumin in different organic solvents; assay type: physicochemical; conditions: for solubility: organic solvent or mixture, read-out: Conc. (solubility)
Source text: Comparison of PLGA C3-complex-curcumin vs PLGA S-curcumin indicated the following differences. The solubilities of 99.2% S-Curcumin in all four solvents. […] This confers improved manufacturing capability, and attributes to different pharmacokinetics and pharmacodynamics in in vivo settings (Table 1). [table]

[2] = test system: breast cancer cell line MCF10ACA1H; experiment: Scratch assay (wound healing) in MCF10ACA1H; assay type: cell-based, human; conditions: 12 hour exposure

COc1cc(C=CC(=O)CC(=O)C=Cc2ccc(O)c(OC)c2)ccc1O [S-curcumin, 1,7-bis(4-hydroxy-3-methoxyphenyl)-1,6-heptadiene-3,5-dione]
Solubility compared with C3 complex ([1]; normalized to equal concentrations, ethanol, ethyl acetate, acetone, acetonitrile): greater solubility | solubility ([1]; solvent acetone): 42300 µg/mL (≈ 115 mM) | solubility ([1]; solvent acetonitrile): 5440 µg/mL (≈ 14.8 mM) | solubility ([1]; solvent ethanol): 3800 µg/mL (≈ 10.3 mM) | solubility ([1]; solvent ethyl acetate): 10400 µg/mL (≈ 28.2 mM) | 1 g of solvent solubilize in solvent ([1]; solvent acetone): 23.6 mL | Physical appearance of solubility ([1]; solvent acetone): Fully | 1 g of solvent solubilize in solvent ([1]; solvent acetonitrile): 184 mL | Physical appearance of solubility ([1]; solvent acetonitrile): Partial | 1 g of solvent solubilize in solvent ([1]; solvent ethanol): 263 mL | Physical appearance of solubility ([1]; solvent ethanol): Partial | 1 g of solvent solubilize in solvent ([1]; solvent ethyl acetate): 96.2 mL | Physical appearance of solubility ([1]; solvent ethyl acetate): Partial | More effective than C3-curcumin in interfering with wound healing [2]: 30%
